Values of other authors as cited in paper PMC10828988, “Tuning the Softness of the Pendant Arms and the Polyazamacrocyclic Backbone to Chelate the ^203Pb/^212Pb Theranostic Pair” (Inorganic Chemistry, 2024).

Parameters: method as in doi:10.1016/0010-8545(91)80023-7
Conditions: T = 25 °C, nonfunctionalized macrocycles; cited from earlier work

For `C1CNCCNCCNCCN1` [cyclen, 1,4,7,10-tetrazacyclododecane], the “logK Pb^2+-macrocycle” value is listed as 15.9.
